Here are results for 12 compounds from ChEMBL document CHEMBL1132543, “N-deacetyl-N-aminoacylthiocolchicine derivatives: synthesis and biological evaluation on MDR-positive and MDR-negative human cancer cell lines” (J Med Chem, 1999).

The term IC50 denotes the concentration that gives 50% inhibition. A high value points to weaker potency.

In one test the test system is MCF7. As to the kind of experiment: Anti tumor activity on human breast cancer cell line MDR-positive MCF-7 ADRr after 72 hours of treatment. It counts as functional, cell-based. The note with it: MCF7, 72 h.
For the next test, the system named is MDA-MB-231. As to the kind of experiment: cells. The note with it: Homo sapiens, MDA-MB-231, 72 h. In kind it is functional, cell-based.

Description for MDA-MB-231: Anti tumor activity on human breast cancer cell line MDR-negative MDA-MB 231 after 72 hours of treatment

As to `COc1cc2c(c(OC)c1OC)-c1ccc(SC)c(=O)cc1[C@@H](NC(=O)[C@H](C)N)CC2`, the IC50 was found to be 10000 nM in the test on MCF7 and 90 nM in the test on MDA-MB-231.
`COc1cc2c(c(OC)c1OC)-c1ccc(SC)c(=O)cc1[C@@H](NC(=O)CN)CC2`: the values for the IC50 with MCF7 and in the test with MDA-MB-231 were 10000 nM and 7.6 nM, respectively.
For `COc1cc2c(c(OC)c1OC)-c1ccc(SC)c(=O)cc1[C@@H](NC(=O)[C@@H](C)N)CC2`, in that order: 12000 nM and 150 nM.
On the same counts, the results for `COc1cc2c(c(OC)c1OC)-c1ccc(SC)c(=O)cc1[C@@H](NC(=O)CNC(=O)C(F)(F)F)CC2` are 12000 nM and 6 nM.
For `COc1cc2c(c(OC)c1OC)-c1ccc(SC)c(=O)cc1[C@@H](NC(=O)[C@@H](N)c1ccccc1)CC2.COc1cc2c(c(OC)c1OC)-c1ccc(SC)c(=O)cc1[C@@H](NC(=O)[C@H](N)c1ccccc1)CC2`, in that order: 1700 nM and 3 nM.
Turning to `COc1cc2c(c(OC)c1OC)-c1ccc(SC)c(=O)cc1[C@@H](NC(=O)[C@@H](NC(=O)C(F)(F)F)c1ccccc1)CC2.COc1cc2c(c(OC)c1OC)-c1ccc(SC)c(=O)cc1[C@@H](NC(=O)[C@H](NC(=O)C(F)(F)F)c1ccccc1)CC2`, the IC50 with MCF7 stood at 1500 nM; in the test with MDA-MB-231, 24 nM.
For `COc1cc2c(c(OC)c1OC)-c1ccc(SC)c(=O)cc1[C@@H](NC(=O)[C@@H](C)N)CC2.COc1cc2c(c(OC)c1OC)-c1ccc(SC)c(=O)cc1[C@@H](NC(=O)[C@H](C)N)CC2`, the values for the 50% inhibitory concentration (IC50) in the test on MCF7 and in the test with MDA-MB-231 were 800 nM and 19 nM, respectively.
On the same counts, the results for `COc1cc2c(c(OC)c1OC)-c1ccc(SC)c(=O)cc1[C@@H](NC(=O)[C@@H](CCSC)NC(=O)C(F)(F)F)CC2.COc1cc2c(c(OC)c1OC)-c1ccc(SC)c(=O)cc1[C@@H](NC(=O)[C@H](CCSC)NC(=O)C(F)(F)F)CC2` are 10000 nM and 37 nM.
Turning to `COc1cc2c(c(OC)c1OC)-c1ccc(SC)c(=O)cc1[C@@H](NC(=O)[C@@H](N)CCSC)CC2.COc1cc2c(c(OC)c1OC)-c1ccc(SC)c(=O)cc1[C@@H](NC(=O)[C@H](N)CCSC)CC2`, the IC50 with MCF7 is 20000 nM; in the test on MDA-MB-231, 35 nM.
For `COc1cc2c(c(OC)c1OC)-c1ccc(SC)c(=O)cc1[C@@H](NC(=O)[C@@H](C)NC(=O)C(F)(F)F)CC2.COc1cc2c(c(OC)c1OC)-c1ccc(SC)c(=O)cc1[C@@H](NC(=O)[C@H](C)NC(=O)C(F)(F)F)CC2`, in that order: 2100 nM and 12 nM.
On the same counts, the results for `COc1cc2c(c(OC)c1OC)-c1ccc(SC)c(=O)cc1[C@@H](NC(=O)C(F)(F)F)CC2` are 35 nM and 1.3 nM.
Regarding `COc1cc2c(c(OC)c1OC)-c1ccc(OC)c(=O)cc1[C@@H](NC(C)=O)CC2` [COLCHICINE], in the test on MDA-MB-231, the IC50 was 1.8 nM.
